Assay results as given in patent publication US7179813B2, “Bicyclic indolyl derivatives and methods for their use as serotonergic agents” (Wyeth, priority 2003, dated 2007).
Structures can show the parent of a compound that is named as a salt. Where two headings read alike, the source gives them in different places. Each block holds one compound with its values, some of them ahead of it.

How the values were obtained:
[1] = animal models; cited from earlier work
[2] = system: PC3; conditions: PC3, in vitro; cited from earlier work
[3] = system: DU-145; conditions: DU-145, in vitro; cited from earlier work
[4] = system: LNCaP; conditions: in vitro; cited from earlier work
[5] = system: PC3 cell line; conditions: athymic nude mice; cited from earlier work
[6] = molecular target: T1, human 5-HT1A receptor (Homo sapiens, UniProt P08908); experiment: Serotonin 5-HT1A binding, displacement of [3H]8-OH-DPAT; conditions: [3H]8-OH-DPAT displacement, CHO cells stably transfected with human 5-HT1A receptor
T1 construct: expressed in transfected cells; host or cells: CHO cells (stably transfected)
T1 sequence (P08908 1-422): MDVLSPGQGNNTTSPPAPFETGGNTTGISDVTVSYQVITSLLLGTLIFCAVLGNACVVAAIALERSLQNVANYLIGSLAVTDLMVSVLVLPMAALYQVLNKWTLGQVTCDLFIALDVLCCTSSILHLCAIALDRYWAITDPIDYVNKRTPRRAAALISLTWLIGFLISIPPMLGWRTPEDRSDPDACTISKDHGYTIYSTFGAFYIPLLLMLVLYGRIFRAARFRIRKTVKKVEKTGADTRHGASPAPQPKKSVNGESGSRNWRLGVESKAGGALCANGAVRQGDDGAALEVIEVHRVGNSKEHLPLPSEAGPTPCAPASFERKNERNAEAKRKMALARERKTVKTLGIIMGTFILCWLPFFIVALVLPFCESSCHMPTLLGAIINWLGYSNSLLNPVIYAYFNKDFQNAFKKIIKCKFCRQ
Excerpt: Affinity for the serotonin 5-HT1A receptor was established by assaying the test compound's ability to displace [^3H]8-OH-DPAT from its binding site on the receptor complex in CHO cells stably transfected with the human 5-HT1A receptor following the procedure described by Dunlop et al., J. PharmacoL ToxicoL Methods 1998, 40, 47.

[7] = molecular target: T1, human 5-HT1A receptor; experiment: Antagonism of 8-OH-DPAT inhibition of forskolin-stimulated cyclic-AMP turnover in transfected CHO cells; assay type: cell-based; conditions: CHO cells with human 5-HT1A receptor, read-out: cAMP IC50
[8] = in vivo; cited from earlier work
[9] = cited from earlier work
[10] = system: marmosets; conditions: cited from earlier work

Compound: OC(CNC1CCCCC1)COc1cccc2[nH]ccc12 (centres unmarked) [LY206130]
anxiogenic behaviors induced by nicotine withdrawal [1]: blocked

Compound: pindobind
antineoplastic activity [2]: antineoplastic activity
antineoplastic activity [3]: antineoplastic activity
antineoplastic activity [4]: antineoplastic activity
growth of the PC3 cell line in vivo [5]: inhibited the growth

Compound: COc1ccccc1N1CCN(CC(C(=O)NC(C)(C)C)c2ccccc2)CC1 (centres unmarked) [WAY-100135]
impairment of spatial learning caused by intrahippocampal scopolamine [8]: prevented the impairment of spatial learning

Compound: CC(C)NCC(O)COc1cccc2[nH]ccc12 (centres unmarked) [pindolol]
median time needed to achieve a sustained antidepressant response ([9]; co-administered with the SSRI fluoxetine): significantly reduced the median time
median time needed to achieve a sustained antidepressant response ([9]; co-administered with the SSRI paroxetine): significantly reduced the median time

Compound: C[C@H](CN(C(=O)C1(C)C2CCC1CC2)c1ccccn1)N1CCN(c2cccc3[nH]ccc23)CC1 (stereo partly drawn) [Example 4, N-{(2R)-2-[4-(1H-indol-4-yl)piperazin-1-yl]propyl}-7-methyl-N-pyridin-2-yl-bicyclo[2.2.1]heptane-7-carboxamide]
Ki [6]: 0.45 nM
IC50 [7]: 6.7 nM

Compound: COc1ccccc1N1CCN(CCCCN2C(=O)c3ccccc3C2=O)CC1 [NAN-190]
anxiogenic behaviors induced by nicotine withdrawal [1]: blocked

Compound: COc1ccccc1N1CCN(CC[C@](C)(C(=O)C2CCCCC2)c2ccccc2)CC1 [LY 426965]
anxiogenic behaviors induced by nicotine withdrawal [1]: blocked

Compound: COc1ccccc1N1CCN(CCN(C(=O)C2CCCCC2)c2ccccn2)CC1 [WAY-100635]
cognitive deficits induced by fomix lesions [10]: reversed the cognitive deficits
anxiogenic behaviors induced by nicotine withdrawal [1]: blocked

Second part, the compound after the results:

melting point: 176 to 179 °C
Compound: C[C@H](CN(C(=O)C1C2CCC1CC2)c1ccccn1)N1CCN(c2cccc3[nH]ccc23)CC1 (stereo partly drawn) (as salt: hydrochloride) [Example 3, N-{(2R)-2-[4-(1H-Indol-4-yl)piperazin-1-yl]propyl}-N-pyridin-2-yl-bicyclo[2.2.1]heptane-7-carboxamide]

melting point: 180 to 182 °C
Compound: C[C@H](CN(C(=O)[C@H]1CC2CCC1CC2)c1ccccn1)N1CCN(c2cccc3[nH]ccc23)CC1 (as salt: hydrochloride) [Example 1, (S)-N-{(2R)-2-[4-(1H-Indol-4-yl)piperazin-1-yl]propyl}-N-pyridin-2-yl-bicyclo[2.2.2]octane-2-carboxamide]

Ki [6]: 0.98 nM
IC50 [7]: 74.5 nM
Compound: C[C@H](CN(C(=O)C1C2CCC1CC2)c1ccccn1)N1CCN(c2cccc3[nH]ccc23)CC1 (stereo partly drawn) [Example 3, N-{(2R)-2-[4-(1H-Indol-4-yl)piperazin-1-yl]propyl}-N-pyridin-2-yl-bicyclo[2.2.1]heptane-7-carboxamide]

Ki [6]: 0.69 nM
IC50 [7]: 2.2 nM
Compound: C[C@H](CN(C(=O)[C@@H]1CC2CCC1CC2)c1ccccn1)N1CCN(c2cccc3[nH]ccc23)CC1 [Example 2, (R)-N-[(2R)-2-[4-(1H-Indol-4-yl)-1-piperazinyl]propyl]-N-2-pyridin-2-yl-bicyclo[2.2.2]octane-2-carboxamide]

Ki [6]: 0.68 nM
IC50 [7]: 4.1 nM
Compound: C[C@H](CN(C(=O)[C@H]1CC2CCC1CC2)c1ccccn1)N1CCN(c2cccc3[nH]ccc23)CC1 [Example 1, (S)-N-{(2R)-2-[4-(1H-Indol-4-yl)piperazin-1-yl]propyl}-N-pyridin-2-yl-bicyclo[2.2.2]octane-2-carboxamide]

melting point: 236 to 238 °C
Compound: C[C@H](CN(C(=O)C1(C)C2CCC1CC2)c1ccccn1)N1CCN(c2cccc3[nH]ccc23)CC1 (stereo partly drawn) (as salt: hydrochloride) [Example 4, N-{(2R)-2-[4-(1H-indol-4-yl)piperazin-1-yl]propyl}-7-methyl-N-pyridin-2-yl-bicyclo[2.2.1]heptane-7-carboxamide]
